{"source": "patent US8445636B2", "about": "“Antimicrobial and anticancer lipopeptides” (Yeda Research & Development Co. Ltd., priority 2003, dated 2013)", "assay_type_in_all_cases": "cell-based", "key": {"[1]": {"test_system": "Staphylococcus aureus ATCC 6538P", "protocol": "(§1) The antibacterial activity of the lipopeptides was examined in sterile 96-well plates (Nunc F96 microtiter plates) in a final volume of 100 μl as follows: Aliquots (50 μl) of a suspension containing bacteria at concentration of 1×10^6 Colony-Forming Units (CFU)/ml in culture LB (Lauria broth) medium (pH 7.4 or pH 5.5) were added to 50 μl of water containing the lipopeptide in serial 2-fold dilutions in water. Adjustment of the pH was done by diluted solutions of HCl and NaOH Inhibition of growth was determined by measuring the absorbance at 600 nm with a Microplate autoreader E1309 (Bio-Tek Instruments), after an incubation time of 18-20 h at 37° C. Antibacterial activities were expressed as the minimal inhibitory concentration (MIC), the concentration at which 100% inhibition of growth was observed after 18-20 h of incubation. The bacteria used were: Escherichia coli ATCC 25922, Acinetobacter baumannii ATCC 19606, Pseudomonas aeruginosa ATCC 27853, Staphylococcus aureus ATCC 6538P, Enterococcus faecalis ATCC 29212, Enterobacter cloacae ATCC 49141. The antibacterial activity of lipopeptides was also examined against resistant bacteria: methicilin-resistant Staphylococcus aureus (MRSA) ATCC 700698 and vancomycin-resistant Enterococcus faecium (VRE) ATCC 700221. If not indicated otherwise, the bacterial growth was detected at pH 7.4."}, "[2]": {"test_system": "Acinetobacter baumannii ATCC 19606", "protocol": "as §1"}, "[3]": {"test_system": "Pseudomonas aeruginosa ATCC 27853", "protocol": "as §1"}, "[4]": {"test_system": "Aspergillus fumigatus ATCC 26430", "assay": "microbe, parasite or virus in culture"}, "E. coli D21": {"test_system": "E. coli D21"}, "[5]": {"test_system": "Candida albicans ATCC 10231", "assay": "microbe, parasite or virus in culture", "protocol": "(§2) The antifungal activity of the lipopeptides was examined in sterile 96-well plates (Nunc F96 microtiter plates) in a final volume of 200 μL as follows: 100 µl of a suspension containing fungi at a concentration of 1×10^4 Colony-Forming Units (CFU)/ml in culture medium (RPMI 1640, 0.165 M MOPS with L-glutamine, without NaHCO3) at pH 7.4 or pH 5.5 (adjustment of the pH was done by diluted solutions of HCl and NaOH) were added to 100 μl of water containing the peptide in serial 2-fold dilutions in water. The fungi were incubated in the presence of the lipopeptides for 24-48 h at 35° C. in a Binder KB115 incubator under agitation. Growth inhibition was determined by measuring the absorbance at 620 nm with a Microplate autoreader E1309 (Bio-Tek Instruments). Antifungal activity is expressed as the minimal inhibitory concentration (MIC), the concentration at which 100% inhibition of fungi growth was observed after the incubation time mentioned above. The fungi used were: Aspergillus niger ATCC 9642, Candida albicans ATCC 10231 and Cryptococcus neoformans ATCC 66031. If not indicated otherwise, the fungi growth was detected at pH 7.4."}, "[6]": {"test_system": "Cryptococcus neoformans ATCC MYA-422", "assay": "microbe, parasite or virus in culture", "settings": "ATCC MYA-422, pH 7.4; read-out: Minimal Inhibitory Concentration, Cyrptococcus neoformans (ATCC MYA-422)"}, "[7]": {"test_system": "Escherichia coli ATCC 25922", "protocol": "as §1"}, "[8]": {"test_system": "Cryptococcus neoformans ATCC 66031", "assay": "microbe, parasite or virus in culture", "protocol": "as §2"}, "[9]": {"settings": "ATCC 26430, pH 7.4, read-out: Minimal Inhibitory Concentration, Aspergillus Fomigatus (ATCC 26430)"}, "[10]": {"settings": "ATCC 10231, pH 7.4, read-out: Minimal Inhibitory Concentration, Candida Albicans (ATCC 10231)"}}, "note": "Read-outs that look alike come from different tables or passages of the source. Non-standard residues stand in square brackets, D forms with d. Residues, ends and D or L forms follow the SMILES beside them. *: point of attachment. Palmitoyl = CCCCCCCCCCCCCCCC(=O)*; Lauroyl = CCCCCCCCCCCC(=O)*"}
{"smiles": "CCCCCCCCCCCCCCCC(=O)N[C@@H](CCCCN)C(=O)N[C@H](CCCCN)C(=O)N[C@@H](CCC(=O)O)C(=O)N[C@@H](CCCCN)C(N)=O", "note": "[PA-KKEK, Palmitoyl-Lys-D-Lys-Glu-Lys-NH2] (Palmitoyl-K[dK]EK-NH2)", "values": [{"measurement": "Minimal Inhibitory Concentration, S. aureus ATCC 6538P", "setting": "[1]; ATCC 6538, pH 7.4", "value": 25, "unit": "µM"}, {"measurement": "Minimal Inhibitory Concentration, A. baumannii ATCC 19606", "setting": "[2]; ATCC 19606, pH 7.4", "value": 100, "unit": "µM"}, {"measurement": "Minimal Inhibitory Concentration, P. aeruginosa ATCC 27853", "setting": "[3]; ATCC 27853, pH 7.4", "value": 100, "unit": "µM"}, {"measurement": "MIC", "setting": "[4]; [9]", "value": 50, "unit": "µM"}, {"measurement": "Minimal Inhibitory Concentration, E. coli-D21", "setting": "E. coli D21; D21, pH 7.4", "value": 25, "unit": "µM"}, {"measurement": "MIC", "setting": "[5]; [10]", "value": 50, "unit": "µM"}, {"measurement": "MIC", "setting": "[6]", "value": 12.5, "unit": "µM"}]}
{"smiles": "CCCCCCCCCCCCCCCC(=O)N[C@@H](CCCCN)C(=O)N[C@@H](CCCCN)C(=O)N[C@@H](CCCCN)C(=O)N[C@@H](CCCCN)C(N)=O", "note": "[PA-KKKK] (Palmitoyl-KKKK-NH2)", "values": [{"measurement": "Minimal Inhibitory Concentration, S. aureus ATCC 6538P", "setting": "[1]; ATCC 6538, pH 7.4", "value": 25, "unit": "µM"}, {"measurement": "Minimal Inhibitory Concentration, P. aeruginosa ATCC 27853", "setting": "[3]; ATCC 27853, pH 7.4", "value": 3.12, "unit": "µM"}, {"measurement": "MIC", "setting": "[4]; [9]", "value": 12.5, "unit": "µM"}, {"measurement": "Minimal Inhibitory Concentration, E. coli-D21", "setting": "E. coli D21; D21, pH 7.4", "value": 12.5, "unit": "µM"}, {"measurement": "MIC", "setting": "[5]; [10]", "value": 25, "unit": "µM"}, {"measurement": "MIC", "setting": "[6]", "value": 1.56, "unit": "µM"}]}
{"smiles": "CCCCCCCCCCCCCCCC(=O)N[C@@H](CCCCN)C(N)=O", "note": "[PA-K]", "values": [{"measurement": "Minimal Inhibitory Concentration, S. aureus ATCC 6538P", "setting": "[1]; ATCC 6538, pH 7.4", "value": ">100", "unit": "µM"}, {"measurement": "Minimal Inhibitory Concentration, A. baumannii ATCC 19606", "setting": "[2]; ATCC 19606, pH 7.4", "value": ">100", "unit": "µM"}, {"measurement": "Minimal Inhibitory Concentration, P. aeruginosa ATCC 27853", "setting": "[3]; ATCC 27853, pH 7.4", "value": ">100", "unit": "µM"}, {"measurement": "MIC", "setting": "[4]; [9]", "value": ">100", "unit": "µM"}, {"measurement": "Minimal Inhibitory Concentration, E. coli-D21", "setting": "E. coli D21; D21, pH 7.4", "value": ">100", "unit": "µM"}, {"measurement": "MIC", "setting": "[5]; [10]", "value": ">100", "unit": "µM"}, {"measurement": "MIC", "setting": "[6]", "value": 6.25, "unit": "µM"}]}
{"smiles": "CCCCCCCCCCCCCCCC(=O)N[C@@H](CCCNC(=N)N)C(=O)N[C@@H](CC(C)C)C(=O)N[C@H](CC(C)C)C(=O)N[C@@H](CCCNC(=N)N)C(N)=O", "note": "[PA-RLLR, Palmitoyl-Arg-Leu-D-Leu-Arg-NH2] (Palmitoyl-RL[dL]R-NH2)", "values": [{"measurement": "Minimal Inhibitory Concentration, S. aureus ATCC 6538P", "setting": "[1]; ATCC 6538, pH 7.4", "value": 25, "unit": "µM"}, {"measurement": "Minimal Inhibitory Concentration, A. baumannii ATCC 19606", "setting": "[2]; ATCC 19606, pH 7.4", "value": ">100", "unit": "µM"}, {"measurement": "Minimal Inhibitory Concentration, P. aeruginosa ATCC 27853", "setting": "[3]; ATCC 27853, pH 7.4", "value": ">100", "unit": "µM"}, {"measurement": "MIC", "setting": "[4]; [9]", "value": 6.25, "unit": "µM"}, {"measurement": "Minimal Inhibitory Concentration, E. coli-D21", "setting": "E. coli D21; D21, pH 7.4", "value": ">100", "unit": "µM"}, {"measurement": "MIC", "setting": "[5]; [10]", "value": 25, "unit": "µM"}, {"measurement": "MIC", "setting": "[6]", "value": 1.56, "unit": "µM"}]}
{"smiles": "CCCCCCCCCCCC(=O)N[C@H](CC(C)C)C(=O)N[C@@H](CCCCN)C(=O)N[C@@H](Cc1c[nH]cn1)C(=O)N[C@H](CC(C)C)C(=O)N[C@H](CC(C)C)C(=O)N[C@@H](CCCCN)C(=O)N[C@@H](Cc1c[nH]cn1)C(=O)N[C@H](CC(C)C)C(=O)N[C@H](CC(C)C)C(=O)N[C@@H](CCCCN)C(=O)N[C@@H](Cc1c[nH]cn1)C(=O)N[C@H](CC(C)C)C(N)=O", "note": "[lipopeptide 28, (CH3-(CH2)10-CO-)-D-Leu-Lys-His-D-Leu-D-Leu-Lys-His-D-Leu-D-Leu-Lys-His-D-Leu-NH2] (Lauroyl-[dL]KH[dL][dL]KH[dL][dL]KH[dL]-NH2)", "values": [{"measurement": "Minimal inhibitory concentrations, E. Coli ATCC 25922", "setting": "[7]; ATCC 25922, pH 5.5", "value": ">100", "unit": "µM"}, {"measurement": "Minimal inhibitory concentrations, E. Coli ATCC 25922", "setting": "[7]; ATCC 25922, pH 7.4", "value": 100, "unit": "µM"}, {"measurement": "Minimal inhibitory concentrations, S. aureus II ATCC 6538P", "setting": "[1]; ATCC 6538, pH 5.5", "value": ">100", "unit": "µM"}, {"measurement": "Minimal inhibitory concentrations, S. aureus II ATCC 6538P", "setting": "[1]; ATCC 6538, pH 7.4", "value": 18.75, "unit": "µM"}, {"measurement": "Minimal inhibitory concentrations, A. baumannii ATCC 19606", "setting": "[2]; ATCC 19606, pH 5.5", "value": ">100", "unit": "µM"}, {"measurement": "Minimal inhibitory concentrations, A. baumannii ATCC 19606", "setting": "[2]; ATCC 19606, pH 7.4", "value": 50, "unit": "µM"}, {"measurement": "Minimal inhibitory concentrations, P. Aeruginosa ATCC 27853", "setting": "[3]; ATCC 27853, pH 5.5", "value": ">100", "unit": "µM"}, {"measurement": "Minimal inhibitory concentrations, P. Aeruginosa ATCC 27853", "setting": "[3]; ATCC 27853, pH 7.4", "value": 50, "unit": "µM"}, {"measurement": "MIC", "setting": "[4]; ATCC 26430, pH 5.5, read-out: Minimal inhibitory concentrations, A. Fumig. With serum", "value": 100, "unit": "µM"}, {"measurement": "MIC", "setting": "[4]; ATCC 26430, pH 5.5, read-out: Minimal inhibitory concentrations, A. Fumig. Without serum", "value": 12.5, "unit": "µM"}, {"measurement": "MIC", "setting": "[4]; ATCC 26430, pH 7.4, read-out: Minimal inhibitory concentrations, A. Fumig. With serum", "value": 100, "unit": "µM"}, {"measurement": "MIC", "setting": "[4]; ATCC 26430, pH 7.4, read-out: Minimal inhibitory concentrations, A. Fumig. Without serum", "value": 25, "unit": "µM"}, {"measurement": "Minimal inhibitory concentrations, E. Coli D21", "setting": "E. coli D21; D21, pH 5.5", "value": ">100", "unit": "µM"}, {"measurement": "Minimal inhibitory concentrations, E. Coli D21", "setting": "E. coli D21; D21, pH 7.4", "value": 50, "unit": "µM"}, {"measurement": "MIC", "setting": "[5]; ATCC 10231, pH 5.5, read-out: Minimal inhibitory concentrations, C. Albicans With serum", "value": ">100", "unit": "µM"}, {"measurement": "MIC", "setting": "[5]; ATCC 10231, pH 5.5, read-out: Minimal inhibitory concentrations, C. Albicans Without serum", "value": 12.5, "unit": "µM"}, {"measurement": "MIC", "setting": "[5]; ATCC 10231, pH 7.4, read-out: Minimal inhibitory concentrations, C. Albicans With serum", "value": ">100", "unit": "µM"}, {"measurement": "MIC", "setting": "[5]; ATCC 10231, pH 7.4, read-out: Minimal inhibitory concentrations, C. Albicans Without serum", "value": 12.5, "unit": "µM"}, {"measurement": "MIC", "setting": "[8]; ATCC 66031, pH 5.5, read-out: Minimal inhibitory concentrations, C. Neofor. With serum", "value": 12.5, "unit": "µM"}, {"measurement": "MIC", "setting": "[8]; ATCC 66031, pH 5.5, read-out: Minimal inhibitory concentrations, C. Neofor. Without serum", "value": "<0.78", "unit": "µM"}, {"measurement": "MIC", "setting": "[8]; ATCC 66031, pH 7.4, read-out: Minimal inhibitory concentrations, C. Neofor. With serum", "value": 6.25, "unit": "µM"}, {"measurement": "MIC", "setting": "[8]; ATCC 66031, pH 7.4, read-out: Minimal inhibitory concentrations, C. Neofor. Without serum", "value": 1.56, "unit": "µM"}]}
